Laboratory results as given in publication PMC6470738, “Characterization of the High-Affinity Drug Ligand Binding Site of Mouse Recombinant TSPO” (International Journal of Molecular Sciences, 2019).
Where “and” joins values, the source holds several entries; their conditions need not be identical. Equal entries are not always repeated. Entries after “also recorded” stand apart in the source; their conditions may differ. Where two headings read alike, the source gives them in different places.

How the values were obtained:
[1] = test system: TSPO A147T (polymorphism rs6971); details: human polymorphism rs6971; cited from earlier work
TSPO ∆158-159 = biological target: TSPO ∆158-159; parameters: method as in Farges et al. (1994); details: yeast mitochondria, ref Farges et al. (1994), read-out: PK 11195 Kd; cited from earlier work
TSPO W47 mutation = test system: TSPO W47 mutation; parameters: method as in PMID 7808437; details: cited from earlier work
mammalian TSPO ∆141-152 = test system: mammalian TSPO ∆141-152; parameters: method as in Li et al. (1998); details: bacterial protoplast, control = wild type, ref Li et al. (1998); cited from earlier work
mammalian TSPO ∆153-169 = test system: mammalian TSPO ∆153-169; parameters: method as in Li et al. (1998); details: bacterial protoplast, control = wild type, ref Li et al. (1998); cited from earlier work
rec-mTSPO [2] = biological target: T1, rec-mTSPO (Mus musculus, UniProt P50637); experiment: Circular dichroism of rec-mTSPO in DPC with PK 11195; details: increasing amounts of PK 11195, high ligand over protein molar ratios
T1 construct: His tag; made in house; host or cells: E. coli BL21 DE3
Experimental: Far UV circular dichroism spectra were recorded on a Jobin-Yvon CD6 spectropolarimeter operated at room temperature according to published protocols [19, 25, 45]. Briefly, a detergent solubilized mTSPO sample (5 µM) in a 10 mM sodium phosphate buffer solution was placed in a 0.2 mm path length quartz cuvette (Hellma, Paris, France). The CD spectra were recorded in the 185 to 270 nm wavelength range with a 0.2 nm step resolution, 1 s signal averaging time and 1 nm bandwidth. The spectra were averaged over five scans, corrected for background and smoothed over 25 points. A consensus secondary structure content was estimated by spectral deconvolution using CONTINLL, CDSSTR and Selcon software and datasets of reference proteins SMP50 (37 soluble proteins and 13 membrane proteins) and SP37 (37 soluble proteins) [46], as well as CDFriend.

TSPO2 = test system: TSPO2; parameters: method as in PMID 19729679; details: paralogous TSPO2; cited from earlier work
TSPO Wild-type = biological target: TSPO Wild-type; parameters: method as in Farges et al. (1994); details: yeast mitochondria, ref Farges et al. (1994), read-out: PK 11195 Kd; cited from earlier work
rec-mTSPO [3] = biological target: T1, rec-mTSPO; experiment: Limited trypsin digestion of rec-mTSPO solubilized in DPC; details: DPC 0.1%, 30 °C, TSPO:trypsin 30:1; 100 µM PK 11195 and increasing concentrations
Experimental: Proteolysis was performed by mixing rec-mTSPO (0.2 mg/mL) solubilized in DPC (0.1%) and a phosphate buffer (10 mM at pH 7.0) with protease at a TSPO:Trypsin ratio of 30:1 (w/w).

mammalian TSPO ∆41-51 = test system: mammalian TSPO ∆41-51; parameters: method as in Li et al. (1998); details: bacterial protoplast, control = wild type, ref Li et al. (1998); cited from earlier work
TSPO R103A = test system: TSPO R103A; parameters: method as in PMID 7808437; details: cited from earlier work
TSPO R32G = test system: TSPO R32G; parameters: method as in PMID 7808437; details: cited from earlier work
rec-mTSPO [4] = biological target: T1, rec-mTSPO; details: cited from earlier work
TSPO ∆157-169 = biological target: TSPO ∆157-169; parameters: method as in Farges et al. (1994); details: yeast mitochondria, ref Farges et al. (1994), read-out: PK 11195 Kd; cited from earlier work
rec-mTSPO F100A = biological target: T2, rec-mTSPO F100A (Mus musculus, UniProt P50637, F100A); experiment: [3H]-PK 11195 saturation binding to rec-mTSPO reconstituted in proteoliposomes
T2 construct: His tag; made in house; host or cells: E. coli
Experimental: (§1) Mutations were performed using the QuikChange Site-Directed Mutagenesis kit (Stratagene, France) according to published protocols. In brief, miniprep pET-PBR plasmid double-strand DNA was used as a template. Synthetic oligonucleotide primer pairs containing a point mutation or deletion, each complementary to the opposing strand of the vector, were extended during temperature cycling by pfu DNA polymerase. The nicked vector DNAs containing the desired mutations were then transfected into E. coli.
(§2) SDS-solubilized mTSPO was reincorporated in proteoliposomes by mixing with SDS solubilized lipids (dimyristoyl phosphatidyl choline/dimyristoyl phosphatidyl ethanolamine, 9:1) at a lipid to protein ratio of 5 (w/w). The detergent was removed using Bio-Beads SM2 according to published protocols. Reconstitution was followed by combining the fluorescence and optical changes as previously described.
(§3) Proteoliposomes containing recombinant mTSPO were incubated with various concentrations of [^3H]-PK 11195 (SA, 83.5 Ci/mmol, Perkin Elmer SAS, Courtaboeuf, France) in phosphate buffer saline (PBS). The bound ligand was quantified by liquid scintillation spectrometry after filtration on Whatman Filters GF/C (Sigma-Aldrich, Saint Quentin Fallavier, France) according to published protocols. The Kd and Bmax values were determined by fitting the saturation curves with the following equation Ligand bound = (Bmax × Ligand)/(Kd + Ligand).

[5] = biological target: T3, rec-mTSPO ΔC-ter (153–169) (Mus musculus, UniProt P50637); experiment: as above
T3 construct: His tag; made in house; host or cells: E. coli
Experimental: as §1, §2, §3

rec-mTSPO Y34F/F100A = biological target: T4, rec-mTSPO Y34F/F100A (Mus musculus, UniProt P50637, F100A/Y34F); experiment: as above
T4 construct: His tag; made in house; host or cells: E. coli
Experimental: as §1, §2, §3

rec-mTSPO Y34F/F99A = biological target: T5, rec-mTSPO Y34F/F99A (Mus musculus, UniProt P50637, F99A/Y34F); experiment: as above
T5 construct: His tag; made in house; host or cells: E. coli
Experimental: as §1, §2, §3

rec-mTSPO Y34F = biological target: T6, rec-mTSPO Y34F (Mus musculus, UniProt P50637, Y34F); experiment: as above
T6 construct: His tag; made in house; host or cells: E. coli
Experimental: as §1, §2, §3

rec-mTSPO Δ41–51 = biological target: T7, rec-mTSPO Δ41–51 (Mus musculus, UniProt P50637, DEL41-51); experiment: as above; details: Δ41–50 as printed in Table 1
T7 construct: His tag; made in house; host or cells: E. coli
Experimental: as §1, §2, §3

rec-mTSPO Y34S = biological target: T8, rec-mTSPO Y34S (Mus musculus, UniProt P50637, Y34S); experiment: as above
T8 construct: His tag; made in house; host or cells: E. coli
Experimental: as §1, §2, §3

mammalian TSPO ∆120-133 = test system: mammalian TSPO ∆120-133; parameters: method as in Li et al. (1998); details: bacterial protoplast, control = wild type, ref Li et al. (1998); cited from earlier work
[6] = test system: WT and mutants of TSPO reconstituted in liposomes; experiment: [3H]-PK 11195 saturation binding to rec-mTSPO reconstituted in proteoliposomes, all constructs; parameters: species or system mouse; details: all stoichiometries obtained
Experimental: as §2, §3

human TSPO ∆15-35 = details: cited from earlier work
TSPO V26T = test system: TSPO V26T; parameters: method as in PMID 7808437; details: cited from earlier work
mammalian TSPO ∆108-119 = test system: mammalian TSPO ∆108-119; parameters: method as in Li et al. (1998); details: bacterial protoplast, control = wild type, ref Li et al. (1998); cited from earlier work
TSPO ∆2-20,158-169 = biological target: TSPO ∆2-20,158-169; parameters: method as in Farges et al. (1994); details: yeast mitochondria, ref Farges et al. (1994), read-out: PK 11195 Kd; cited from earlier work
mammalian TSPO ∆5-20 = test system: mammalian TSPO ∆5-20; parameters: method as in Li et al. (1998); details: bacterial protoplast, control = wild type, ref Li et al. (1998); cited from earlier work
rec-mTSPO WT = biological target: T9, rec-mTSPO WT (Mus musculus, UniProt P50637); experiment: [3H]-PK 11195 saturation binding to rec-mTSPO reconstituted in proteoliposomes
T9 construct: His tag; made in house; host or cells: E. coli BL21 DE3
Experimental: as §2, §3

TSPO ∆156-169 = biological target: TSPO ∆156-169; parameters: method as in Farges et al. (1994); details: yeast mitochondria, ref Farges et al. (1994), read-out: PK 11195 Kd; cited from earlier work
TSPO ∆2-20 = biological target: TSPO ∆2-20; parameters: method as in Farges et al. (1994); details: yeast mitochondria, ref Farges et al. (1994), read-out: PK 11195 Kd; cited from earlier work
TSPO K39G = test system: TSPO K39G; parameters: method as in PMID 7808437; details: cited from earlier work
TSPO W42 mutation = test system: TSPO W42 mutation; parameters: method as in PMID 7808437; details: cited from earlier work

For `COc1ccccc1CN(C(C)=O)c1cnccc1Oc1ccccc1` [PBR28], the “decrease of the affinity due to A147T polymorphism” value [1] is listed as “one or two orders of magnitude”.

In the case of `CCC(C)N(C)C(=O)c1cc2ccccc2c(-c2ccccc2Cl)n1` (centres unmarked) [PK 11195, N-butan-2-yl-1-(2-chlorophenyl)-N-methylisoquinoline-3-carboxamide], the Kd (TSPO ∆158-159) is listed as 10 ± 6 nM, the “effect of mutation on PK 11195 binding” value (TSPO W47 mutation) is listed as “no effect” and the “PK 11195 binding % of control” value (mammalian TSPO ∆141-152) is listed as ~ 75 % of control. The “PK 11195 binding % of control” value (mammalian TSPO ∆153-169) was ~ 75 % of control and 75 % of control, the “effect on CD spectrum of rec-mTSPO” value (rec-mTSPO [2]) was “increasing changes in the CD spectrum” and the “binding to TSPO2” value (TSPO2) was “not binding”. The Kd (TSPO Wild-type) was 6 ± 3 nM, the “effect on proteolytic cleavage of rec-mTSPO by trypsin” value (rec-mTSPO [3]) was “protected against cleavage” and the “PK 11195 binding % of control” value (mammalian TSPO ∆41-51) was ~ 55 % of control and 55 % of control. For the same compound, the “effect of mutation on PK 11195 binding” value (TSPO R103A) was “no effect”, the “effect of mutation on PK 11195 binding” value (TSPO R32G) was “no effect” and the “PK 11195 binding in detergent” value (rec-mTSPO [4]; SDS-solubilized rec-mTSPO) was “no PK 11195 binding”. For the same compound, the “affinity with detergent-solubilized rec-mTSPO” value (rec-mTSPO [4]; detergent-solubilized, additional interaction between PK 11195 and detergent) was “micro-millimolar range”, the “PK 11195 binding in detergent” value (rec-mTSPO [4]; rec-mTSPO in the presence of DPC) was “observed” and the Kd (TSPO ∆157-169) was 9 ± 3 nM. The Bmax (rec-mTSPO F100A) was 25 ± 7 nmol/mg, the Kd (rec-mTSPO F100A) was 20 ± 5 nM and the Bmax [5] was 30 ± 10 nmol/mg. The Kd [5] was 20 ± 5 nM, the “decrease in affinity for PK 11195 compared with WT” value (rec-mTSPO Y34F/F100A; Y34F/F100A vs WT) was 20 fold and the Bmax (rec-mTSPO Y34F/F100A; Y34F/F100A, proteoliposomes) was 25 ± 10 nmol/mg. The Kd (rec-mTSPO Y34F/F100A; Y34F/F100A, proteoliposomes) was 150 ± 20 nM, the “decrease in affinity for PK 11195 compared with WT” value (rec-mTSPO Y34F/F99A; Y34F/F99A vs WT) was 20 fold and the Bmax (rec-mTSPO Y34F/F99A; Y34F/F99A, proteoliposomes) was 25 ± 10 nmol/mg. It also gave a Kd (rec-mTSPO Y34F/F99A; Y34F/F99A, proteoliposomes) of 150 ± 20 nM, a Bmax (rec-mTSPO Y34F) of 27 ± 3 nmol/mg and a Kd (rec-mTSPO Y34F) of 20 ± 3 nM. It also gave a Bmax (rec-mTSPO Δ41–51) of 25 ± 8 nmol/mg, a Kd (rec-mTSPO Δ41–51) of 20 ± 8 nM and a Bmax (rec-mTSPO Y34S) of 25 ± 5 nmol/mg. The Kd (rec-mTSPO Y34S) was 40 ± 7 nM, the “PK 11195 binding % of control” value (mammalian TSPO ∆120-133) was ~ 55 % of control and the “stoichiometry (Bmax)” value [6] was 25–30 nmol of PK 11195 bound per mg of recombinant TSPO. The “effect of A147T polymorphism on affinity” value [1] was “no effect”, the “effect of deletion on PK 11195 binding” value (human TSPO ∆15-35; Δ15–35 of human TSPO overexpressed in yeast) was “complete loss of PK 11195 binding; also recorded: loses its binding capacity” and the Kd (human TSPO ∆15-35; ∆15-35, yeast mitochondria, ref Farges et al. (1994), read-out: PK 11195 Kd) was over 200 nM. For the same compound, the “effect of mutation on PK 11195 binding” value (TSPO V26T) was “complete loss of PK 11195 binding”, the “PK 11195 binding % of control” value (mammalian TSPO ∆108-119) was ~ 70 % of control and the Kd (TSPO ∆2-20,158-169) was over 200 nM. The “PK 11195 binding % of control” value (mammalian TSPO ∆5-20) was ~ 70 % of control, the Kd (rec-mTSPO WT; proteoliposomes, fit of saturation curve) was 8 ± 3 nM and the Bmax (rec-mTSPO WT; stoichiometry, nmol PK 11195 bound per mg recombinant TSPO) was 25 ± 3 nmol/mg. The Kd (TSPO ∆156-169) was 10 ± 4 nM, the Kd (TSPO ∆2-20) was 25 ± 8 nM and the “effect of mutation on PK 11195 binding” value (TSPO K39G) was “no effect”. For the same compound, the “effect of mutation on PK 11195 binding” value (TSPO W42 mutation) was “no effect”.
